ChEMBL document CHEMBL4028874, “Methodology for Monobactam Diversification: Syntheses and Studies of 4-Thiomethyl Substituted β-Lactams with Activity against Gram-Negative Bacteria, Including Carbapenemase Producing Acinetobacter baumannii” (2017)
Values after ≈ are worked out from the molar mass of the structure shown. Active and inactive are the calls of the source. No cut-off for these calls is given here.

How the values were obtained:
Acinetobacter baumannii [1] = assay: Antibacterial activity against Acinetobacter baumannii ATCC BAA 1793 at 10 ug/ml after 18 hrs by broth microdilution method; assay type: functional
Burkholderia dolosa = assay: Antibacterial activity against Burkholderia dolosa AU0018 after 18 hrs by broth microdilution method; assay type: functional; conditions: AU0018, 18 h
Acinetobacter baumannii [2] = assay: Antibacterial activity against cephalosporinase producing Acinetobacter baumannii ATCC 17978-PNT-320 after 18 hrs by broth microdilution method; assay type: functional
Acinetobacter baumannii [3] = assay: Antibacterial activity against Acinetobacter baumannii ATCC BAA 1800 at 10 ug/ml after 18 hrs by broth microdilution method; assay type: functional
Pseudomonas aeruginosa [4] = assay: Antibacterial activity against clinical isolates of Pseudomonas aeruginosa ISR-14-004 after 18 hrs by broth microdilution method; assay type: functional
Acinetobacter baumannii [5] = assay: Antibacterial activity against clinical isolates of Acinetobacter baumannii ISR14-005 after 18 hrs by broth microdilution method; assay type: functional
Pseudomonas aeruginosa [6] = assay: Antibacterial activity against clinical isolates of Pseudomonas aeruginosa ISR-14-003 after 18 hrs by broth microdilution method; assay type: functional
Pseudomonas aeruginosa [7] = assay: Antibacterial activity against Pseudomonas aeruginosa ARC 3502 after 18 hrs by broth microdilution method; assay type: functional; conditions: ARC 3502, 18 h
Acinetobacter baumannii [8] = assay: Antibacterial activity against clinical isolates of Acinetobacter baumannii ARC 5079 after 18 hrs by broth microdilution method; assay type: functional
Pseudomonas aeruginosa [9] = assay: Antibacterial activity against Pseudomonas aeruginosa ARC 3506 after 18 hrs by broth microdilution method; assay type: functional; conditions: ARC 3506, 18 h
Acinetobacter baumannii [10] = assay: Antibacterial activity against Acinetobacter baumannii ATCC BAA 1793 after 18 hrs by broth microdilution method; assay type: functional
Staphylococcus aureus = assay: Antibacterial activity against Staphylococcus aureus SG 511 after 18 hrs by broth microdilution method; assay type: functional; conditions: SG 511, 18 h
Pseudomonas aeruginosa [11] = assay: Antibacterial activity against clinical isolates of Pseudomonas aeruginosa ISR-14-003 after 18 hrs in presence of tazobactam by broth microdilution method; assay type: functional; conditions: ISR-14-003, 18 h
Acinetobacter baumannii [12] = assay: Antibacterial activity against Acinetobacter baumannii ATCC BAA 1800 after 18 hrs by broth microdilution method; assay type: functional; conditions: ATCC BAA 1800, 18 h
Citrobacter freundii = assay: Antibacterial activity against Citrobacter freundii ATCC 29063 after 18 hrs by broth microdilution method; assay type: functional; conditions: ATCC 29063, 18 h
Pseudomonas aeruginosa [13] = assay: Antibacterial activity against Pseudomonas aeruginosa ARC 3506 after 18 hrs in presence of tazobactam by broth microdilution method; assay type: functional; conditions: ARC 3506, 18 h
Acinetobacter baumannii [14] = assay: Antibacterial activity against Acinetobacter baumannii ATCC BAA 1797 after 18 hrs by broth microdilution method; assay type: functional; conditions: ATCC BAA 1797, 18 h
Pseudomonas aeruginosa [15] = assay: Antibacterial activity against Pseudomonas aeruginosa 01 after 18 hrs by broth microdilution method; assay type: functional; conditions: Pseudomonas aeruginosa, 01, 18 h
Acinetobacter baumannii [16] = assay: Antibacterial activity against Acinetobacter baumannii ATCC 17961 after 18 hrs by broth microdilution method; assay type: functional; conditions: ATCC 17961, 18 h
Pseudomonas aeruginosa [17] = assay: Antibacterial activity against Pseudomonas aeruginosa ARC 3502 after 18 hrs in presence of tazobactam by broth microdilution method; assay type: functional; conditions: ARC 3502, 18 h
Acinetobacter baumannii [18] = assay: Antibacterial activity against clinical isolates of Acinetobacter baumannii ISR14-005 after 18 hrs in presence of tazobactam by broth microdilution method; assay type: functional; conditions: ISR14-005, 18 h
Escherichia coli = assay: Antibacterial activity against Escherichia coli DC0 after 18 hrs by broth microdilution method; assay type: functional; conditions: DC0, 18 h
Pseudomonas aeruginosa [19] = assay: Antibacterial activity against Pseudomonas aeruginosa KW799/wt after 18 hrs by broth microdilution method; assay type: functional
Salmonella typhimurium = assay: Antibacterial activity against Salmonella typhimurium ATCC 13311 after 18 hrs by broth microdilution method; assay type: functional, Salmonella enterica subsp. enterica serovar Typhimurium; conditions: Salmonella enterica, ATCC 13311, 18 h
Klebsiella aerogenes = assay: Antibacterial activity against Enterobacter aerogenes X816 after 18 hrs by broth microdilution method; assay type: functional; conditions: X816, 18 h
Acinetobacter baumannii [20] = assay: Antibacterial activity against carbapenemase producing Acinetobacter baumannii ATCC 17978-PNT-165 after 18 hrs by broth microdilution method; assay type: functional; conditions: ATCC 17978-PNT-165, 18 h
Pseudomonas aeruginosa [21] = assay: Antibacterial activity against clinical isolates of Pseudomonas aeruginosa ISR-14-004 after 18 hrs in presence of tazobactam by broth microdilution method; assay type: functional; conditions: ISR-14-004, 18 h
Proteus mirabilis = assay: Antibacterial activity against Proteus mirabilis X235 after 18 hrs by broth microdilution method; assay type: functional; conditions: X235, 18 h
Acinetobacter baumannii [22] = assay: Antibacterial activity against clinical isolates of Acinetobacter baumannii ARC 5079 in presence of tazobactam after 18 hrs by broth microdilution method; assay type: functional; conditions: ARC 5079, 18 h

Molecule | MIC (Burkholderia dolosa) [µM] | MIC (Acinetobacter baumannii [2]; ATCC 17978-PNT-320, 18 h) | MIC (Pseudomonas aeruginosa [4]; ISR-14-004, 18 h) | MIC (Acinetobacter baumannii [5]; ISR14-005, 18 h) | MIC (Pseudomonas aeruginosa [6]; ISR-14-003, 18 h) | MIC (Pseudomonas aeruginosa [7]) | MIC (Acinetobacter baumannii [8]; ARC 5079, 18 h) | MIC (Pseudomonas aeruginosa [9]) | MIC (Staphylococcus aureus) [µM] | MIC (Acinetobacter baumannii [12]) [µM] | MIC (Citrobacter freundii) [µM] | MIC (Acinetobacter baumannii [14]) [µM] | MIC (Pseudomonas aeruginosa [15]) [µM] | MIC (Acinetobacter baumannii [16]) [µM] | MIC (Escherichia coli) [µM] | MIC (Pseudomonas aeruginosa [19]) [µM] | MIC (Salmonella typhimurium) [µM] | MIC (Klebsiella aerogenes) [µM] | MIC (Acinetobacter baumannii [20]) [µM] | MIC (Proteus mirabilis) [µM] | further results
C[C@]1(Cn2ccnn2)[C@H](C(=O)O)N2C(=O)C[C@H]2S1(=O)=O [TAZOBACTAM] | > 50 | < 10 µg/mL | > 20 µg/mL | > 20 µg/mL | > 20 µg/mL | > 10 µg/mL | > 10 µg/mL | > 10 µg/mL |  |  |  |  |  |  |  |  |  |  |  |  | Activity (Acinetobacter baumannii [1]): inactive; Activity (Acinetobacter baumannii [3]): inactive
POLYMYXIN B |  |  |  |  |  |  |  |  |  |  |  |  |  |  |  |  |  |  |  |  | MIC (Acinetobacter baumannii [2]): < 0.025 µM; MIC (Acinetobacter baumannii [10]): < 0.025 µM; MIC (Pseudomonas aeruginosa [4]): 0.05 µM; MIC (Acinetobacter baumannii [5]): < 0.025 µM; MIC (Pseudomonas aeruginosa [6]): 0.1 µM; MIC (Acinetobacter baumannii [8]): < 0.1 µM
CC(C)(O/N=C(\C(=O)N[C@@H]1C(=O)N(S(=O)(=O)O)[C@H]1CSCCNC(=O)CN(CCCCNC(=O)c1cccc(O)c1O)C(=O)c1cccc(O)c1O)c1cnc(N)s1)C(=O)O | > 50 | 0.4 µM | 6 µM | > 50 µM | 1.6 µM | > 50 µM | 1.6 to 25 µM | > 50 µM | > 50 | 0.1 to 0.4 (≈ 0.0911 to 0.364 µg/mL) | 0.05 (≈ 0.0455 µg/mL) | 0.4 (≈ 0.364 µg/mL) | 0.4 (≈ 0.364 µg/mL) | 0.2 (≈ 0.182 µg/mL) | < 0.025 | 0.4 (≈ 0.364 µg/mL) | 0.025 (≈ 0.0228 µg/mL) | 0.075 (≈ 0.0683 µg/mL) | 0.4 (≈ 0.364 µg/mL) | < 0.025 | MIC (Pseudomonas aeruginosa [11]): 1.6 µM; MIC (Pseudomonas aeruginosa [13]): 1.6 to 25 µM; MIC (Pseudomonas aeruginosa [17]): 1.6 µM; MIC (Acinetobacter baumannii [10]; ATCC BAA 1793, 18 h): 0.1 to 0.4 µM (≈ 0.0911 to 0.364 µg/mL); MIC (Acinetobacter baumannii [18]): 25 µM; MIC (Pseudomonas aeruginosa [21]): 3 µM; MIC (Acinetobacter baumannii [22]): 1.6 to 50 µM
CO/N=C(\C(=O)N[C@@H]1C(=O)N(S(=O)(=O)O)[C@H]1CSCCN)c1cnc(N)s1 |  |  | > 50 µM | > 50 µM | > 50 µM | > 50 µM |  | > 50 µM | > 50 |  | 12.5 (≈ 5.48 µg/mL) | > 50 | > 50 | 50 (≈ 21.9 µg/mL) | 25 (≈ 11 µg/mL) | > 50 | 12.5 (≈ 5.48 µg/mL) | 0.2 (≈ 0.0877 µg/mL) | 50 (≈ 21.9 µg/mL) | 12.5 (≈ 5.48 µg/mL) | 
CC(C)(O/N=C(\C(=O)N[C@@H]1C(=O)N(S(=O)(=O)O)[C@H]1CSCCN)c1cnc(N)s1)C(=O)O | > 50 | > 50 µM | > 50 µM | > 50 µM | > 50 µM | ≥ 50 µM | > 50 µM | > 50 µM | > 50 | ≥ 50 | 3 (≈ 1.53 µg/mL) | 50 (≈ 25.5 µg/mL) | > 50 | > 50 | 6 (≈ 3.06 µg/mL) | > 50 | 4.5 (≈ 2.3 µg/mL) | 9.4 (≈ 4.8 µg/mL) | 50 (≈ 25.5 µg/mL) | 3 (≈ 1.53 µg/mL) | MIC (Pseudomonas aeruginosa [13]): > 50 µM; MIC (Acinetobacter baumannii [10]; ATCC BAA 1793, 18 h): ≥ 50 µM; MIC (Acinetobacter baumannii [22]): > 50 µM
COC(=O)CSC[C@H]1[C@H](NC(=O)Cc2ccccc2)C(=O)N1S(=O)(=O)O | > 50 | > 50 µM | > 50 µM | > 50 µM | > 50 µM | > 50 µM | > 50 µM | > 50 µM | > 50 | > 50 | > 50 | > 50 | > 50 | > 50 | > 50 | > 50 | > 50 | > 50 | > 50 | > 50 | MIC (Acinetobacter baumannii [10]; ATCC BAA 1793, 18 h): > 50 µM
C[C@H]1[C@H](NC(=O)/C(=N\OC(C)(C)C(=O)O)c2csc(N)n2)C(=O)N1S(=O)(=O)O [AZTREONAM] | > 50 |  |  |  |  |  |  | 12.5 to 50 µM | > 50 | 12.5 to 25 (≈ 5.44 to 10.9 µg/mL) | 0.1 (≈ 0.0435 µg/mL) |  |  |  | 0.1 (≈ 0.0435 µg/mL) | 1.6 (≈ 0.697 µg/mL) | 0.1 (≈ 0.0435 µg/mL) | 0.2 (≈ 0.0871 µg/mL) | 12.5 (≈ 5.44 µg/mL) | 0.05 (≈ 0.0218 µg/mL) | MIC (Acinetobacter baumannii [10]; ATCC BAA 1793, 18 h): 12.5 to 25 µM (≈ 5.44 to 10.9 µg/mL)
